Source: patent publication US5395947A, “Platinum(II) complex and processes for preparing the same” (Sunkyong Industries, Ltd., priority 1991, dated 1995)

Assays:
[1] = Test for water solubility; assay type: physicochemical; settings: water
From the text: 3. Test for water solubility
A standard plot of UV absorbance(220 nm) vs. concentration was made; and employed to determine water-solubility.
The mixture was then passed through a 0.45 micron disposable membrane filter before dilution and UV measurement.

ICR mice = test: Acute toxicity test; assay type: in vivo; set-up: Lethality: unit not given here; settings: for Lethality: 10080 min
Description: 7-week-old ICR mice(male: 34±2 g; female: 31±2 g) were fed with solid food and water under the condition of 23±1° C. temperature and 65±5% humidity before the test.
Each treatment group consisted of 6 mice. The test compounds were administered intraperitoneally.
For 7 days after the administration, the appearance and the fate of the tested animals were recorded. The dead animals were subjected to autopsy and their visible pathological changes were observed. Their viscerals were stored in 10% formalin solution.

murine leukemia L1210 = test: Antitumor activity test on murine leukemia L1210 in vivo; set-up: species or system male BDF1 mice; settings: days 1, 5, 9
Procedure, shortened: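 Male BDF1 mice (6 weeks, 21±3 g; n=7) received 1×10^6 leukemia cells into the peritoneum on day 0, then test compound suspended or dissolved in 0.5% CMC i.p. on days 1, 5, 9. Activity expressed as T/C %, mean survival treated versus 0.5% CMC-injected controls.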

[2] = tested on: murine leukemia L1210 cells; test: Growth inhibition test on cultured murine leukemia L1210 cells; assay type: cell-based; settings: 48 hours, 37° C., Trypan blue viability
Procedure, shortened: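 Read-out is Trypan blue (0.17%) viability versus compound-free controls. Cells, 1×10^5, were cultured 48 h at 37° C under 5% CO2 in RPMI 1640/10% FCS containing various compound concentrations.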

CC1OC2C[NH2+][Pt-2]3([NH2+]CC2O1)[O]C(=O)C1(CCC1)C(=O)[O]3 [Example 22, cis-cyclobutane-1,1-dicarboxylato[(4R,5R)-4,5-bis(aminomethyl)-2-methyl-1,3-dioxolane]platinum(II)]
Solubility in water [1]: 24.9 mg/mL
Number of dead mice for 7 days (ICR mice; female, 94 mg/kg i.p.): 0/6
Number of dead mice, 1st day (ICR mice; female, 94 mg/kg i.p.): 0/6
Number of dead mice for 7 days (ICR mice; female, 123 mg/kg i.p.): 1/6
Number of dead mice, 1st day (ICR mice; female, 123 mg/kg i.p.): 0/6
Number of dead mice, 4th day (ICR mice; female, 123 mg/kg i.p.): 1/6
Lethality (ICR mice; female, 123 mg/kg i.p.): 16.7
Number of dead mice for 7 days (ICR mice; female, 160 mg/kg i.p.): 3/6
Number of dead mice, 1st day (ICR mice; female, 160 mg/kg i.p.): 0/6
Number of dead mice, 4th day (ICR mice; female, 160 mg/kg i.p.): 2/6
Number of dead mice, 5th day (ICR mice; female, 160 mg/kg i.p.): 1/4
Lethality (ICR mice; female, 160 mg/kg i.p.): 50.0
Number of dead mice for 7 days (ICR mice; female, 208 mg/kg i.p.): 5/6
Number of dead mice, 1st day (ICR mice; female, 208 mg/kg i.p.): 0/6
Number of dead mice, 3rd day (ICR mice; female, 208 mg/kg i.p.): 1/6
Number of dead mice, 4th day (ICR mice; female, 208 mg/kg i.p.): 4/5
Lethality (ICR mice; female, 208 mg/kg i.p.): 83.3
Number of dead mice for 7 days (ICR mice; female, 270 mg/kg i.p.): 6/6
Number of dead mice, 1st day (ICR mice; female, 270 mg/kg i.p.): 0/6
Number of dead mice, 2nd day (ICR mice; female, 270 mg/kg i.p.): 4/6
Number of dead mice, 3rd day (ICR mice; female, 270 mg/kg i.p.): 2/2
Lethality (ICR mice; female, 270 mg/kg i.p.): 100.0
Number of dead mice for 7 days (ICR mice; male, 94 mg/kg i.p.): 0/6
Number of dead mice, 1st day (ICR mice; male, 94 mg/kg i.p.): 0/6
Number of dead mice for 7 days (ICR mice; male, 123 mg/kg i.p.): 0/6
Number of dead mice, 1st day (ICR mice; male, 123 mg/kg i.p.): 0/6
Number of dead mice for 7 days (ICR mice; male, 160 mg/kg i.p.): 4/6
Number of dead mice, 1st day (ICR mice; male, 160 mg/kg i.p.): 1/6
Number of dead mice, 4th day (ICR mice; male, 160 mg/kg i.p.): 1/5
Number of dead mice, 5th day (ICR mice; male, 160 mg/kg i.p.): 1/4
Number of dead mice, 6th day (ICR mice; male, 160 mg/kg i.p.): 1/3
Lethality (ICR mice; male, 160 mg/kg i.p.): 66.7
Number of dead mice for 7 days (ICR mice; male, 208 mg/kg i.p.): 5/6
Number of dead mice, 1st day (ICR mice; male, 208 mg/kg i.p.): 0/6
Number of dead mice, 4th day (ICR mice; male, 208 mg/kg i.p.): 4/6
Number of dead mice, 5th day (ICR mice; male, 208 mg/kg i.p.): 1/2
Lethality (ICR mice; male, 208 mg/kg i.p.): 83.3
Number of dead mice for 7 days (ICR mice; male, 270 mg/kg i.p.): 6/6
Number of dead mice, 1st day (ICR mice; male, 270 mg/kg i.p.): 0/6
Number of dead mice, 2nd day (ICR mice; male, 270 mg/kg i.p.): 2/6
Number of dead mice, 3rd day (ICR mice; male, 270 mg/kg i.p.): 4/4
Lethality (ICR mice; male, 270 mg/kg i.p.): 100.0
T/C (%) (murine leukemia L1210; 6.2 mg/kg i.p.): 125%
T/C (%) (murine leukemia L1210; 12.5 mg/kg i.p.): 129%
T/C (%) (murine leukemia L1210; 25 mg/kg i.p.): 247%
T/C (%) (murine leukemia L1210; 50 mg/kg i.p.): 262%
T/C (%) (murine leukemia L1210; 100 mg/kg i.p.): 382%
IC50 (concentration required for 50% inhibition of growth) [2]: 0.90 µg/mL

CC1[O][Pt][O]C1=O.NCC1OC2(CCCC2)OC1CN [Example 15, (L-lactato-O,O')[(4R,5R)-4,5-bis(aminomethyl)-1,3-dioxolane-2-spiro-1'-cyclopentane]platinum(II)]
Solubility in water [1]: 4.9 mg/mL
Number of dead mice for 7 days (ICR mice; female, 41.3 mg/kg i.p.): 0/6
Number of dead mice, 1st day (ICR mice; female, 41.3 mg/kg i.p.): 0/6
Lethality (ICR mice; female, 41.3 mg/kg i.p.): 0.0
Number of dead mice for 7 days (ICR mice; female, 54.9 mg/kg i.p.): 3/6
Number of dead mice, 1st day (ICR mice; female, 54.9 mg/kg i.p.): 0/6
Number of dead mice, 3rd day (ICR mice; female, 54.9 mg/kg i.p.): 1/6
Number of dead mice, 4th day (ICR mice; female, 54.9 mg/kg i.p.): 1/5
Number of dead mice, 5th day (ICR mice; female, 54.9 mg/kg i.p.): 1/4
Lethality (ICR mice; female, 54.9 mg/kg i.p.): 50.0
Number of dead mice for 7 days (ICR mice; female, 71.4 mg/kg i.p.): 5/6
Number of dead mice, 1st day (ICR mice; female, 71.4 mg/kg i.p.): 0/6
Number of dead mice, 4th day (ICR mice; female, 71.4 mg/kg i.p.): 1/6
Number of dead mice, 5th day (ICR mice; female, 71.4 mg/kg i.p.): 3/5
Number of dead mice, 6th day (ICR mice; female, 71.4 mg/kg i.p.): 1/2
Lethality (ICR mice; female, 71.4 mg/kg i.p.): 83.7
Number of dead mice for 7 days (ICR mice; female, 91.8 mg/kg i.p.): 6/6
Number of dead mice, 1st day (ICR mice; female, 91.8 mg/kg i.p.): 0/6
Number of dead mice, 2nd day (ICR mice; female, 91.8 mg/kg i.p.): 1/6
Number of dead mice, 3rd day (ICR mice; female, 91.8 mg/kg i.p.): 2/5
Number of dead mice, 4th day (ICR mice; female, 91.8 mg/kg i.p.): 2/3
Number of dead mice, 5th day (ICR mice; female, 91.8 mg/kg i.p.): 1/1
Lethality (ICR mice; female, 91.8 mg/kg i.p.): 100.0
Number of dead mice for 7 days (ICR mice; male, 41.3 mg/kg i.p.): 0/6
Number of dead mice, 1st day (ICR mice; male, 41.3 mg/kg i.p.): 0/6
Lethality (ICR mice; male, 41.3 mg/kg i.p.): 0.0
Number of dead mice for 7 days (ICR mice; male, 54.9 mg/kg i.p.): 4/6
Number of dead mice, 1st day (ICR mice; male, 54.9 mg/kg i.p.): 0/6
Number of dead mice, 3rd day (ICR mice; male, 54.9 mg/kg i.p.): 2/6
Number of dead mice, 6th day (ICR mice; male, 54.9 mg/kg i.p.): 2/4
Lethality (ICR mice; male, 54.9 mg/kg i.p.): 66.7
Number of dead mice for 7 days (ICR mice; male, 71.4 mg/kg i.p.): 5/6
Number of dead mice, 1st day (ICR mice; male, 71.4 mg/kg i.p.): 0/6
Number of dead mice, 4th day (ICR mice; male, 71.4 mg/kg i.p.): 4/6
Number of dead mice, 5th day (ICR mice; male, 71.4 mg/kg i.p.): 1/2
Lethality (ICR mice; male, 71.4 mg/kg i.p.): 83.3
Number of dead mice for 7 days (ICR mice; male, 91.8 mg/kg i.p.): 6/6
Number of dead mice, 1st day (ICR mice; male, 91.8 mg/kg i.p.): 0/6
Number of dead mice, 2nd day (ICR mice; male, 91.8 mg/kg i.p.): 2/6
Number of dead mice, 3rd day (ICR mice; male, 91.8 mg/kg i.p.): 3/4
Number of dead mice, 4th day (ICR mice; male, 91.8 mg/kg i.p.): 1/1
Lethality (ICR mice; male, 91.8 mg/kg i.p.): 100.0
T/C (%) (murine leukemia L1210; 12.5 mg/kg i.p.): 225%
T/C (%) (murine leukemia L1210; 25 mg/kg i.p.): 243%
T/C (%) (murine leukemia L1210; 50 mg/kg i.p.): 192%
IC50 (concentration required for 50% inhibition of growth) [2]: 0.33 µg/mL
